Tested on: Glucane Synthesis of Candida Albicans (membranes of Candida albicans)
Test: Inhibition of the glucane synthesis of Candida albicans (14C-UDP glucose incorporation by purified membranes)
Assay type: biochemical
Conditions: Candida albicans membrane proteins, 25° C., 1 hour, result in words
Method: A—Inhibition of the Glucane Synthesis of Candida Albicans.
The membranes of Candida albicans are purified according to the process described by Tang and al Antimicrob. Agents Chemother 35, 99-103, 1991. 22.5 μg of membrane proteins are incubated in a mixture of 2 Mm of 14C-UDP glucose (specific activity=0.34 mCi./mmol, 50 μg of α-amylase, 1 Mm of dithiotreitol (DTT), 1 Mm EDTA, 100 Mm NaF, 7 μM of GTP-γ-S, 1M of sucrose and 5 oMm OF Ttris-HCL (pH 7.8) in a volume of 100 μl. The medium is incubated at 25° C. for 1 hour and the reaction terminated by addition of TCA to a final concentration of 5%. The reaction medium is transferred onto a pre-humidified glass fibre filter. The filter is washed, dried and its radioactivity is counted.
Mulundocandin is used as positive control.
The control of the medium is carried out with the same quantity of DMSO 1%.

Substance	Inhibition of the glucane synthesis of Candida albicans
(±) Trifluoroacetate of 1-[4-[(aminoiminomethyl) hydrazono]-N2-(12-methyl-1-oxotetradecyl)-L-ornithine]4-[4-(4-hydroxyphenyl)-L-threonine]-5-L serine echinocandin B [Example 11]	good activity
Trifluoroacetate of 1-[4-[(2-aminoethyl) amino]N2-[[4′-(octyloxy)[1.1′-biphenyl]-4-[carbonyl]-L-ornithine]4-[4-(4-(4-hydroxyphenyl)-L-threonine]-5-L serine echinocandin B (isomer A) [Example 14]	good activity
Trifluoroacetate of 1-[4-[(2-aminoethyl) amino]-N2-(12-methyl-1-oxotetradecyl)-L-ornithine]4-[4-(4-hydroxyphenyl)-L-threonine]-5-L serine echinocandin B (isomer A and isomer B) [Example 9]	good activity
